Measured values as given in US10011609B2, “Heterocyclic compounds” (CADILA HEALTHCARE LIMITED, priority 2013, dated 2018).
Counter-ions that a name gives are not always drawn. Like-named read-outs stand apart in the source and are kept apart here.

Biological target: T1, GPR40 (Homo sapiens, UniProt O14842)
T1 construct: host or cells: HEK293 (ChemiBrite cell line)
Assay: Promoter-luciferase assay to measure GPR40 activation (HEK293 cells stably transfected with GPR40 cDNA)
Assay type: cell-based
Conditions: HEK293 cells stably transfected with GPR40, 5xSRE-luciferase
Description: GPR40 activation was measured in HEK293 cells stably transfected with GPR40 cDNA (ChemiBrite cell lines from Millipore, US). These cells were transiently transfected with a pGL2 (Promega Inc.) plasmid having a 5×SRE sequence, cloned 5′ of a luciferase gene along with a β-galactosidase plasmid as normalizing control. Briefly, 35000 cells/well were seeded in a 96 well plates. After overnight incubation at 37° C., the cells were washed with PBS and transfected with the 5×-SRE-Luciferase plasmid and the β-galactosidase plasmid. 6 h post transfection, media was removed and replaced with fresh media with different concentration of drugs and incubated for 16 more hours. The cells were then lysed in 50 μL of Glo-Lysis buffer (Promega) for 30 min at room temperature. The cells were then centrifuged and lysates were collected. Luciferase activity was measured by adding 100 μL of luciferase substrate (Promega) in 20 μL of lysate and measuring the luminescence in luminometer. The […] activity was also measured by adding 20 μL of lysates with 20 μL of β-galactosidase buffer (Promega) and monitoring the absorbance at 415 nm. Luciferase values were divided by β-galactosidase values to normalize transfection efficiency (Table 2)

[1] = read-out: EC50 in Luciferase assay

T1 sequence (O14842 whole entry, species assumed): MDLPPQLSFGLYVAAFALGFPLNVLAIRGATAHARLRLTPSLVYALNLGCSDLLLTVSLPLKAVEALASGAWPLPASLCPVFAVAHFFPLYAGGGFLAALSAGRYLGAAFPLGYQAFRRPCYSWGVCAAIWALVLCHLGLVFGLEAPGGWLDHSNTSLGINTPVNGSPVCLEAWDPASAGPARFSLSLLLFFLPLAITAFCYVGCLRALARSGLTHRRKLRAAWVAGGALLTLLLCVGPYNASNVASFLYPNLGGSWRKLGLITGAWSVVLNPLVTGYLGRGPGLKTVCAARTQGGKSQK

EC50 [1] | SMILES | EC50 (EC50 in Luciferase assay)
5.6 nM | CC#C[C@@H](CC(=O)O)c1ccc(OCc2cccc(CN3Cc4ccccc4C3)c2)cc1 [Compound 12, (S)-3-(4-((3-(isoindolin-2-ylmethyl)benzyl)oxy)phenyl)hex-4-ynoic acid trifluoroacetic acid] | 
0.8 nM | CC#C[C@@H](CC(=O)O)c1ccc(OCc2cccc(CN3CCCc4ccccc43)c2)cc1 [Compound 13, (S)-3-(4-((3-((3,4-dihydroquinolin-1(2H)-yl)methyl)benzyl)oxy)phenyl)hex-4-ynoic acid] | 
4.6 nM | CC#C[C@@H](CC(=O)O)c1ccc(OCc2cccc(CN3CCc4ccccc4C3)c2)cc1 [Compound 15, (S)-3-(4-((3-((3,4-dihydroisoquinolin-2(1H)-yl)methyl)benzyl)oxy)phenyl)hex-4-ynoic acid] | 
8.8 nM | CC#C[C@@H](CC(=O)O)c1ccc(OCc2cccc(CN3CCc4sc(C(F)F)cc4C3)c2)cc1 [Compound 18, (S)-3-(4-((3-((2-(Difluoromethyl)-6,7-dihydrothieno[3,2-c]pyridin-5(4H)-yl)methyl)benzyl)oxy)phenyl)hex-4-ynoic acid] | 
 | CC#C[C@@H](CC(=O)[O][Ca][O]C(=O)C[C@H](C#CC)c1ccc(OCc2cccc(CN3CCc4ccccc4C3)c2)cc1)c1ccc(OCc2cccc(CN3CCc4ccccc4C3)c2)cc1 [Compound 20, Calcium (S)-3-(4-((3-((3,4-dihydroisoquinolin-2(1H)-yl)methyl)benzyl)oxy)phenyl)hex-4-ynoate] | 2.7 nM
2.8 nM | CC#C[C@@H](CC(=O)O)c1ccc(OCc2cccc(CN3CCc4ncncc4C3)c2)cc1 [Compound 21, (S)-3-(4-((3-((7,8-Dihydropyrido[4,3-d]pyrimidin-6(5H)-yl)methyl)benzyl)oxy)phenyl)hex-4-ynoic acid] | 
0.7 nM | CC#C[C@@H](CC(=O)O)c1ccc(OCc2cccc(CN3CCc4ccccc43)c2)cc1 [Compound 24, (S)-3-(4-((3-(Indolin-1-ylmethyl)benzyl)oxy)phenyl)hex-4-ynoic acid] | 
4.1 nM | CC#C[C@@H](CC(=O)O)c1ccc(OCc2cccc(CN3CCc4oc(C5CC5)nc4C3)c2)cc1 [Compound 26, (S)-3-(4-((3-((2-Cyclopropyl-6,7-dihydrooxazolo[4,5-c]pyridin-5(4H)-yl)methyl)benzyl)oxy)phenyl)hex-4-ynoic acid] | 
4.5 nM | CC#C[C@@H](CC(=O)O)c1ccc(OCc2cccc(CN3CCCc4ccc(OC)cc43)c2)cc1 [Compound 30, 1-(3-((4-((S)-1-carboxypent-3-yn-2-yl)phenoxy)methyl)benzyl)-7-methoxy-1,2,3,4-tetrahydroquinolin-1-ium formate] | 
9.7 nM | CC#C[C@@H](CC(=O)O)c1ccc(OCc2cccc(CN3CCc4nc(Cl)sc4C3)c2)cc1 [Compound 31, (S)-3-(4-((3-((2-Chloro-6,7-dihydrothiazolo[5,4-c]pyridin-5(4H)-yl)methyl)benzyl)oxy)phenyl)hex-4-ynoic acid] | 
4.8 nM | CC#C[C@@H](CC(=O)O)c1ccc(OCc2cccc(CN3CCc4nc(Br)sc4C3)c2)cc1 [Compound 32, (S)-3-(4-((3-((2-Bromo-6,7-dihydrothiazolo[5,4-c]pyridin-5(4H)-yl)methyl)benzyl)oxy)phenyl)hex-4-ynoic acid] | 
204 nM | CC#C[C@@H](CC(=O)O)c1ccc(OCc2cccc(CN3CCc4sc(C(=O)O)cc4C3)c2)cc1 [Compound 35, (S)-5-(3-((4-(1-carboxypent-3-yn-2-yl)phenoxy)methyl)benzyl)-4,5,6,7-tetrahydrothieno[3,2-c]pyridine-2-carboxylic acid] | 
17.8 nM | CC#C[C@@H](CC(=O)O)c1ccc(OCc2cccc(CN3CCc4nc(N)sc4C3)c2)cc1 [Compound 38, (S)-3-(4-((3-((2-amino-6,7-dihydrothiazolo[5,4-c]pyridin-5(4H)-yl)methyl)benzyl)oxy)phenyl)hex-4-ynoic acid] | 
 | CC#C[C@@H](CC(=O)[O][Ca][O]C(=O)C[C@H](C#CC)c1ccc(OCc2cccc(CN3CCc4sc(Cl)cc4C3)c2)cc1)c1ccc(OCc2cccc(CN3CCc4sc(Cl)cc4C3)c2)cc1 [Compound 39, Calcium (S)-3-(4-((3-((2-chloro-6,7-dihydrothieno[3,2-c]pyridin-5(4H)-yl)methyl)benzyl)oxy)phenyl)hex-4-ynoate] | 1.7 nM
8 nM | CC#C[C@@H](CC(=O)O)c1ccc(OCc2cccc(CN3CCc4sc(C(N)=O)cc4C3)c2)cc1 [Compound 40, (S)-3-(4-((3-((2-carbamoyl-6,7-dihydrothieno[3,2-c]pyridin-5(4H)-yl)methyl)benzyl)oxy)phenyl)hex-4-ynoic acid] | 
7.3 nM | CC#C[C@@H](CC(=O)O)c1ccc(OCc2cccc(CN3CCc4sc(C#N)cc4C3)c2)cc1 [Compound 43, (S)-3-(4-((3-((2-cyano-6,7-dihydrothieno[3,2-c]pyridin-5(4H)-yl)methyl)benzyl)oxy)phenyl)hex-4-ynoic acid] | 
4.8 nM | CC#C[C@@H](CC(=O)O)c1ccc(OCc2cccc(CN3CCc4sc(C=O)cc4C3)c2)cc1 [Compound 44, (S)-3-(4-((3-((2-formyl-6,7-dihydrothieno[3,2-c]pyridin-5(4H)-yl)methyl)benzyl)oxy)phenyl)hex-4-ynoic acid] | 
6 nM | CC#C[C@@H](CC(=O)O)c1ccc(OCc2cccc(CN3CCc4sc(C(=O)NC)cc4C3)c2)cc1 [Compound 46, (S)-3-(4-((3-((2-(methylcarbamoyl)-6,7-dihydrothieno[3,2-c]pyridin-5(4H)-yl)methyl)benzyl)oxy)phenyl)hex-4-ynoic acid] | 
9 nM | CC#C[C@@H](CC(=O)O)c1ccc(OCc2cccc(CN3CCc4sc(C(=O)N(C)C)cc4C3)c2)cc1 [Compound 47, (S)-3-(4-((3-((2-(dimethylcarbamoyl)-6,7-dihydrothieno[3,2-c]pyridin-5(4H)-yl)methyl)benzyl)oxy)phenyl)hex-4-ynoic acid] | 
20.8 nM | CC#C[C@@H](CC(=O)O)c1ccc(OCc2cccc(CN3CCc4nc(OC)ncc4C3)c2)cc1 [Compound 50, (S)-3-(4-((3-((2-Methoxy-7,8-dihydropyrido[4,3-d]pyrimidin-6(5H)-yl)methyl)benzyl)oxy)phenyl)hex-4-ynoic acid] | 
3 nM | CC#C[C@@H](CC(=O)O)c1ccc(OCc2cccc(CN3CCCC3c3ccccc3)c2)cc1 (stereo partly drawn) [Compound 51, (3S)-3-(4-((3-((2-phenylpyrrolidin-1-yl)methyl)benzyl)oxy)phenyl)hex-4-ynoic acid] | 
56.5 nM | CC#C[C@H](CC(=O)O)c1ccc(OCc2cccc(CN3CCc4sc(C)cc4C3)c2)cc1 [Compound 55, (R)-3-(4-((3-((2-methyl-6,7-dihydrothieno[3,2-c]pyridin-5(4H)-yl)methyl)benzyl)oxy)phenyl)hex-4-ynoic acid] | 
3.7 nM | CC#CC(CC(=O)O)c1ccc(OCc2cccc(CN3CCc4sc(C)cc4C3)c2)cc1 (stereo not drawn) [Compound 58, 3-(4-((3-((2-Methyl-6,7-dihydrothieno[3,2-c]pyridin-5(4H)-yl)methyl)benzyl)oxy)phenyl)hex-4-ynoic acid] | 
12.6 nM | CC#C[C@@H](CC(=O)O)c1ccc(OCc2cccc(CN3CCc4sc(C(=O)NC5CC5)cc4C3)c2)cc1 [Compound 61, (S)-3-(4-((3-((2-(cyclopropylcarbamoyl)-6,7-dihydrothieno[3,2-c]pyridin-5(4H)-yl)methyl)benzyl)oxy)phenyl)hex-4-ynoic acid] | 
3 nM | CC#C[C@@H](CC(=O)O)c1ccc(OCc2cccc(CN3CCc4sc(C(=O)N5CCCC5)cc4C3)c2)cc1 [Compound 62, (S)-3-(4-((3-((2-(pyrrolidine-1-carbonyl)-6,7-dihydrothieno[3,2-c]pyridin-5(4H)-yl)methyl)benzyl)oxy)phenyl)hex-4-ynoic acid] | 
4.4 nM | CC#C[C@@H](CC(=O)O)c1ccc(OCc2cccc(CN3CCc4sc(NC(C)=O)cc4C3)c2)cc1 [Compound 63, (S)-3-(4-((3-((2-Aacetamido-6,7-dihydrothieno[3,2-c]pyridin-5(4H)-yl)methyl)benzyl)oxy)phenyl)hex-4-ynoic acid] | 
1.6 nM | CC#C[C@@H](CC(=O)O)c1ccc(OCc2cccc(CN3CCc4sc([N+](=O)[O-])cc4C3)c2)cc1 [Compound 65, (S)-3-(4-((3-((2-Nitro-6,7-dihydrothieno[3,2-c]pyridin-5(4H)-yl)methyl)benzyl)oxy)phenyl)hex-4-ynoic acid] | 
11.9 nM | CC#C[C@@H](CC(=O)O)c1ccc(OCc2cccc(CN3CCc4ncccc4C3)c2)cc1 [Compound 68, (S)-3-(4-((3-((7,8-Dihydro-1,6-naphthyridin-6(5H)-yl)methyl)benzyl)oxy)phenyl) hex-4-ynoic acid] | 

SMILES | EC50 [1] | EC50 (EC50 in Luciferase assay)
CC#C[C@@H](CC(=O)O)c1ccc(OCc2cccc(CN3CCc4c(ccn4C(=O)OC(C)(C)C)C3)c2)cc1 [Compound 8, (S)-3-(4-((3-((1-(tert-butoxycarbonyl)-6,7-dihydro-1H-pyrrolo[3,2-c]pyridin-5(4H)-yl)methyl)benzyl)oxy)phenyl)hex-4-ynoic acid] | 11.8 nM | 
CC#C[C@@H](CC(=O)O)c1ccc(OCc2cccc(CN3CC4CC(C3)O4)c2)cc1 [Compound 23, (3S)-3-(4-((3-(6-Oxa-3-azabicyclo[3.1.1]heptan-3-ylmethyl)benzyl)oxy)phenyl)hex-4-ynoic acid] | 5.3 nM | 
